Reference: patent publication US6380209B1 (dated 2002)
Where a name gives a salt, the structure may show the parent alone.

melting point: > 260 °C (dec.)
Structure (SMILES): Fc1ccc(-c2cc(NCC3CCNCC3)c3sccc3n2)cc1 (as salt: hydrochloride)
